Where only a bound is given, the exact number is not on record here.

As usually defined, the AC50 is the midpoint of the concentration-response curve, whichever way the signal moves. High values mean weaker potency, low ones greater potency.

Targets include Mu-type opioid receptor (Homo sapiens, UniProt P35372); D(1A) dopamine receptor (Homo sapiens, UniProt P21728); D(3) dopamine receptor (Homo sapiens, UniProt P35462); Histamine H3 receptor (Homo sapiens, UniProt Q9Y5N1).
Experiment [1] concerns the target T1, Amine oxidase [flavin-containing] A (Homo sapiens, UniProt P21397).
T1 sequence (P21397 whole entry): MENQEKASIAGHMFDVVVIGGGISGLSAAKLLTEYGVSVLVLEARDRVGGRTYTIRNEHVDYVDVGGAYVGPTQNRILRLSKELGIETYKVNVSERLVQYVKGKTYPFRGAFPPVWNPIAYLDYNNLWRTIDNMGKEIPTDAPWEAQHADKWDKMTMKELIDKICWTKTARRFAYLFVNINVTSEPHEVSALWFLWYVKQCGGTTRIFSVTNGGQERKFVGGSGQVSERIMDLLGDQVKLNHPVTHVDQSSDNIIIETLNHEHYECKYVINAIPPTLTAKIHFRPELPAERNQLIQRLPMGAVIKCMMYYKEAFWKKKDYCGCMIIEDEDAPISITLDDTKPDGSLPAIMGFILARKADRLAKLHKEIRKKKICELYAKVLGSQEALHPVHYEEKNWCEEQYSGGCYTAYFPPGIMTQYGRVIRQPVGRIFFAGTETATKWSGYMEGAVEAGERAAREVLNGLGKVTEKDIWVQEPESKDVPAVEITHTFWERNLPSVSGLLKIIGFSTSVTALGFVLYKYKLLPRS
Format: functional.

The target of another experiment is T2, Adenosine receptor A3 (Homo sapiens, UniProt P0DMS8).
T2 sequence (P0DMS8 whole entry): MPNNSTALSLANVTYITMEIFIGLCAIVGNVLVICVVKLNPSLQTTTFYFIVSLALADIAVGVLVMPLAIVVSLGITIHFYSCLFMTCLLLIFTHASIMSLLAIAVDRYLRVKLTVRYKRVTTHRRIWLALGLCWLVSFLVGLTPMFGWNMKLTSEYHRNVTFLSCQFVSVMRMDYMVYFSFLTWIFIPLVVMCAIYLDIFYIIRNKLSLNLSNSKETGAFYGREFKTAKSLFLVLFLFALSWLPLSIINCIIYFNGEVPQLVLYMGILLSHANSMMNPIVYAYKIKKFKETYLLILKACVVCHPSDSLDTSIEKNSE

The target of another experiment is Prothrombin (Homo sapiens, UniProt P00734). Format: functional.
The next experiment concerns the target T3, Thromboxane A2 receptor (Homo sapiens, UniProt P21731).
T3 sequence (P21731 whole entry): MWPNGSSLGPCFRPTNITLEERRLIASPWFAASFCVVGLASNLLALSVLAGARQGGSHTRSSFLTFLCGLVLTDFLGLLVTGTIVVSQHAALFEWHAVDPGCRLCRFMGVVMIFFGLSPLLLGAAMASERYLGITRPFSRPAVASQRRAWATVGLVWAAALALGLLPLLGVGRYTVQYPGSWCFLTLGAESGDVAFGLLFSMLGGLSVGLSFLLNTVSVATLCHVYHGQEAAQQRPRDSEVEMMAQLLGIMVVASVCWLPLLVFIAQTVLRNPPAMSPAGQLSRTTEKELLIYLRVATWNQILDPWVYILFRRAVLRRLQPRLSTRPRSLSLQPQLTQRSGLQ
Format: functional, cell-based.

For experiment [2], the target named is T4, 5-hydroxytryptamine receptor 1A (Homo sapiens, UniProt P08908).
T4 sequence (P08908 whole entry): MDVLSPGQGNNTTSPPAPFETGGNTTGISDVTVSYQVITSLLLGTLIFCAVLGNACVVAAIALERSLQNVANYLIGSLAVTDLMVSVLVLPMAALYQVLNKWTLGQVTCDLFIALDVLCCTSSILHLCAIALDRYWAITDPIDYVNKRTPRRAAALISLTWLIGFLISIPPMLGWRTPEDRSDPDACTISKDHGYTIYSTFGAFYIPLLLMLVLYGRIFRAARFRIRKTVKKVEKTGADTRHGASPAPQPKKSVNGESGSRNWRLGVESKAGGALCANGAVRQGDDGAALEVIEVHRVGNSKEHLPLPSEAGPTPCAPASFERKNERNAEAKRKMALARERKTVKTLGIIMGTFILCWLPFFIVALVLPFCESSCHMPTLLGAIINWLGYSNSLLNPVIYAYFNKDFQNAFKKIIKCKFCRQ

In another experiment the target is T5, Estrogen receptor (Homo sapiens, UniProt P03372).
T5 sequence (P03372 whole entry): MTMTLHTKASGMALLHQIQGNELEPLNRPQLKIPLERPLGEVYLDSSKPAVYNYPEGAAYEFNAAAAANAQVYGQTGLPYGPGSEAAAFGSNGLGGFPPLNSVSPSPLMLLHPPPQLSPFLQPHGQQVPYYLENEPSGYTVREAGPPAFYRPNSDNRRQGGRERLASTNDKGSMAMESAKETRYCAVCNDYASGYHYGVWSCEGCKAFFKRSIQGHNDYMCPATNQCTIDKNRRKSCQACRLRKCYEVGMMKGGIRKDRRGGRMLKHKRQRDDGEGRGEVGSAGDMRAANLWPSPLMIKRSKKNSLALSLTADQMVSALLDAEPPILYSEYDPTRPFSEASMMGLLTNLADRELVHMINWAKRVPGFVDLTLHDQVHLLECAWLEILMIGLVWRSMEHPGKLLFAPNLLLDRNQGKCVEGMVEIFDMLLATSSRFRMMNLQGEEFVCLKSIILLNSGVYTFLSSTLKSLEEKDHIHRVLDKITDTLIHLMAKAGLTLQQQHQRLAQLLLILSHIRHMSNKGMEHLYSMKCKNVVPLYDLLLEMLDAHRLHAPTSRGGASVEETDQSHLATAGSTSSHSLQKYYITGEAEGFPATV

In experiment [3] the target is 5-hydroxytryptamine receptor 2B (Homo sapiens, UniProt P41595). Format: functional, cell-based.
Experiment [4] addresses Prostaglandin G/H synthase 1 (Homo sapiens, UniProt P23219). Format: functional.
Experiment [5] addresses 3',5'-cyclic-AMP phosphodiesterase 4A (Homo sapiens, UniProt P27815). Format: functional.
Also: assay procedure not described here.

Prostaglandin G/H synthase 1, sequence (P23219 whole entry): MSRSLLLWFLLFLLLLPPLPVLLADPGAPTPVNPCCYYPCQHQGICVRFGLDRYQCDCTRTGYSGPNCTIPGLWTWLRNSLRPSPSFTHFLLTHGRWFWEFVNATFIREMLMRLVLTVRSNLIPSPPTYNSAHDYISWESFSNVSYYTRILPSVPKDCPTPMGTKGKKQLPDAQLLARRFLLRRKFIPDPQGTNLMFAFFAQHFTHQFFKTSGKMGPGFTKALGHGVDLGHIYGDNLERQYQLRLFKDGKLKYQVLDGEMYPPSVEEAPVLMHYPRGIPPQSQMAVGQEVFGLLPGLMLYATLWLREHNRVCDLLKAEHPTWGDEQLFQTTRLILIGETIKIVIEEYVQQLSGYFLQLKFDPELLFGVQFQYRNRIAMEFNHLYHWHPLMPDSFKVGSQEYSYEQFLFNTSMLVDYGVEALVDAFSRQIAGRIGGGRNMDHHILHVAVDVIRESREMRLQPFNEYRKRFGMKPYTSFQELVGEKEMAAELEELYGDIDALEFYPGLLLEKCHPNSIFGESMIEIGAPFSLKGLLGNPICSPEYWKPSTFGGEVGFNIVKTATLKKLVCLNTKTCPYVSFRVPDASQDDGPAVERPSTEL
D(3) dopamine receptor, sequence (P35462 whole entry): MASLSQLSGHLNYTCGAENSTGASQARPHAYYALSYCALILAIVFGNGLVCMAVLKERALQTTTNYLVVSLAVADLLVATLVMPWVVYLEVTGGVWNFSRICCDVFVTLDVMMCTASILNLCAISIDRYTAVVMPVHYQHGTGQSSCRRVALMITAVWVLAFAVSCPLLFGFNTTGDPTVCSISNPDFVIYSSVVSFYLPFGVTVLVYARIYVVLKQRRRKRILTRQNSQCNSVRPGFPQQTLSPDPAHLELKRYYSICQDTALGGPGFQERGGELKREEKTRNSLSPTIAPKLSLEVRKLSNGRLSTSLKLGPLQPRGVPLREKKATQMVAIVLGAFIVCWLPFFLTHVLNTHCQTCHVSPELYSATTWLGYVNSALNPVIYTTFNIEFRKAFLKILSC
D(1A) dopamine receptor, sequence (P21728 whole entry): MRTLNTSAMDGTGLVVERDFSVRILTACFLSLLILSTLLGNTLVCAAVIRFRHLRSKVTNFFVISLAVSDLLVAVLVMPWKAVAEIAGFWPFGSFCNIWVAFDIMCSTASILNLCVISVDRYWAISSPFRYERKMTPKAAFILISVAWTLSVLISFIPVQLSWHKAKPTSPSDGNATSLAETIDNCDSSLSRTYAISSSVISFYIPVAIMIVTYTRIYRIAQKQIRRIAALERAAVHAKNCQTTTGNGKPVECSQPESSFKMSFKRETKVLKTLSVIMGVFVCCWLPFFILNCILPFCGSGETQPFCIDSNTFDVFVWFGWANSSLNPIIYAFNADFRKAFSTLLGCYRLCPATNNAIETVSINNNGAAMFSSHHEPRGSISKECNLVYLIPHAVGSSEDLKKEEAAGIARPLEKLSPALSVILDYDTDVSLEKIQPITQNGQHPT
Mu-type opioid receptor, sequence (P35372 whole entry): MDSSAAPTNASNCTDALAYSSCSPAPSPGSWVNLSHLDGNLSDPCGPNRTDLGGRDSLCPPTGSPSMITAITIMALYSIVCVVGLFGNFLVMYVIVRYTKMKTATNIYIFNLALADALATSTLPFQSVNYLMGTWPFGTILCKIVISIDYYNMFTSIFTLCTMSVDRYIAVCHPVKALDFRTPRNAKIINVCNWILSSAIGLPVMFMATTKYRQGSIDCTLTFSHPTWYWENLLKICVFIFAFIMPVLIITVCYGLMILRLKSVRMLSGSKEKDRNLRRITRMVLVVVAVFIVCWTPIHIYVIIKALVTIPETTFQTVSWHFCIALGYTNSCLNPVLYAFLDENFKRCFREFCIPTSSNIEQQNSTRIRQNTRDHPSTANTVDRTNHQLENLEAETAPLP
5-hydroxytryptamine receptor 2B, sequence (P41595 whole entry): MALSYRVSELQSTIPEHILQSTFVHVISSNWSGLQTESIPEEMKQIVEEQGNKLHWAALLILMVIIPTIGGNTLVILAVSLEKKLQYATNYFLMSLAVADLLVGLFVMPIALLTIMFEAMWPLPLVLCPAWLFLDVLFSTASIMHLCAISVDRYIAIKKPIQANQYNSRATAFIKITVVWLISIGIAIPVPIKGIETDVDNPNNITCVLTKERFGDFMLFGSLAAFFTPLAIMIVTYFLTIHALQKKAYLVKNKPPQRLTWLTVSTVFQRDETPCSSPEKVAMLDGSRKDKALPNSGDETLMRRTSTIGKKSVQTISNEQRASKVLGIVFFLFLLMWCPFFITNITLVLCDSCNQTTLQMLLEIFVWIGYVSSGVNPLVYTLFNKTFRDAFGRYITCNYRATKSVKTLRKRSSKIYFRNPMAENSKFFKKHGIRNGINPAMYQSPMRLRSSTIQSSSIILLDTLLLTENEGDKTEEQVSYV
Histamine H3 receptor, sequence (Q9Y5N1 whole entry): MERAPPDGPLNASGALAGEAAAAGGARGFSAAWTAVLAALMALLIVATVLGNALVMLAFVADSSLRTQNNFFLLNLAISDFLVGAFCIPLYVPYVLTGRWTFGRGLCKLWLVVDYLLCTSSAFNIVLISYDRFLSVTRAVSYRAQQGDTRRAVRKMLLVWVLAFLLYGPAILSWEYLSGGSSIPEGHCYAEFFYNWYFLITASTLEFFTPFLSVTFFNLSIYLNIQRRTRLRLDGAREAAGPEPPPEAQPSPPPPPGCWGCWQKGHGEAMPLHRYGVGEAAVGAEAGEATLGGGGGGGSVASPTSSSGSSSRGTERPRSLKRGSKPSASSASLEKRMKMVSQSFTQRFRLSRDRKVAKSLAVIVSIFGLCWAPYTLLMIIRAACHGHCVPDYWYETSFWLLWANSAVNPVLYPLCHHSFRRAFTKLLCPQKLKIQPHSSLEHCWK
3',5'-cyclic-AMP phosphodiesterase 4A, sequence (P27815 whole entry): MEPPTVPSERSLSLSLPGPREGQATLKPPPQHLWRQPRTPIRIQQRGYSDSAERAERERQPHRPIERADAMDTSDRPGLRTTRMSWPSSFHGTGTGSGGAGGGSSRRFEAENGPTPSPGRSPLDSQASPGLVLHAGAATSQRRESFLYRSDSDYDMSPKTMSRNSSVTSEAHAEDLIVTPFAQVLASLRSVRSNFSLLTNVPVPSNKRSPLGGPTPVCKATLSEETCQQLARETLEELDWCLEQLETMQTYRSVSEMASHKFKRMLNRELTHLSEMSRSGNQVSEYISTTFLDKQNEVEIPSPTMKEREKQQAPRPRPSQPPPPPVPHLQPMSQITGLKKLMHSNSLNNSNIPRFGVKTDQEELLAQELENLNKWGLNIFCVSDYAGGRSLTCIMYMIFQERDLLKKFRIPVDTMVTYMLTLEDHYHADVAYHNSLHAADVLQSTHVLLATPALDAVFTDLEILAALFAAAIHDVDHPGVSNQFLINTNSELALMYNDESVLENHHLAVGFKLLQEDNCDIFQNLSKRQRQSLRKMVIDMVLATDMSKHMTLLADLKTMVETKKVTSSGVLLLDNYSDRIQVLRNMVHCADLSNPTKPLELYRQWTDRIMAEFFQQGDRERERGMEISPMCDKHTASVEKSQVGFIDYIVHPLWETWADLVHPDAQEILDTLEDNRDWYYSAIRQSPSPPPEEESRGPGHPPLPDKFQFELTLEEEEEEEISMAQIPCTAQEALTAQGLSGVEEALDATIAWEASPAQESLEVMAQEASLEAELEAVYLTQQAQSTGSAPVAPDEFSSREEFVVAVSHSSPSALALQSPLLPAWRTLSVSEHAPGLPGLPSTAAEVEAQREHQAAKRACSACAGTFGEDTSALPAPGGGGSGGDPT

`CCC(=O)O[C@]1(C(=O)COC(C)=O)CC[C@H]2[C@@H]3CCC4=CC(=O)CC[C@]4(C)[C@H]3[C@@H](O)C[C@@]21C` [HYDROCORTISONE ACEPONATE]: the AC50 (at Mu-type opioid receptor; in experiment [1]; on D(1A) dopamine receptor; on Adenosine receptor A3; at Prothrombin; at D(3) dopamine receptor) was greater than 30 µM in each case. The AC50 (at Thromboxane A2 receptor; in experiment [2]; at Estrogen receptor; in [3]; in [4]; at Histamine H3 receptor) was greater than 30 µM throughout. Moreover, the AC50 in experiment [5] was greater than 30 µM.

Consider `O=[N+]([O-])O[C@H]1CO[C@H]2[C@@H]1OC[C@H]2O[N+](=O)[O-]` [ISOSORBIDE DINITRATE], for which the AC50 (on Mu-type opioid receptor; in experiment [1]; at D(1A) dopamine receptor; at Adenosine receptor A3; on Prothrombin; on D(3) dopamine receptor) was greater than 30 µM in each case. Moreover, the AC50 (at Thromboxane A2 receptor; in [2]; on Estrogen receptor; in [3]; in experiment [4]; on Histamine H3 receptor) was greater than 30 µM each time. The AC50 in [5] was greater than 30 µM.

Turning to `NC(=O)NCCC[C@H](N)C(=O)O` [L-CITRULLINE], the AC50 (at Mu-type opioid receptor; in experiment [1]; at D(1A) dopamine receptor; at Adenosine receptor A3; on Prothrombin; at D(3) dopamine receptor) was greater than 30 µM in each case. The AC50 (on Thromboxane A2 receptor; in experiment [2]; at Estrogen receptor; in [3]; in experiment [4]; on Histamine H3 receptor) was greater than 30 µM each time. For the same molecule, in [5], the AC50 was greater than 30 µM.

Turning to `CC(=O)O[C@H]1C[C@H](O[C@H]2[C@@H](O)C[C@H](O[C@H]3[C@@H](O)C[C@H](O[C@H]4CC[C@@]5(C)[C@H](CC[C@@H]6[C@@H]5C[C@@H](O)[C@]5(C)[C@@H](C7=CC(=O)OC7)CC[C@]65O)C4)O[C@@H]3C)O[C@@H]2C)O[C@H](C)[C@H]1O[C@@H]1O[C@H](CO)[C@@H](O)[C@H](O)[C@H]1O` [LANATOSIDE C], the AC50 (on Mu-type opioid receptor; in experiment [1]; on D(1A) dopamine receptor; at Adenosine receptor A3; at Prothrombin; on D(3) dopamine receptor) was greater than 30 µM throughout. Also, the AC50 (on Thromboxane A2 receptor; in [2]; on Estrogen receptor; in experiment [3]; in [4]; at Histamine H3 receptor) was greater than 30 µM throughout. This molecule also came in with an AC50 in experiment [5] greater than 30 µM.

On to `Nc1nc(N)nc(Nc2ccc([As]3SCC(CO)S3)cc2)n1` (configuration not stated) [MELARSOPROL], for which the half-maximal activity concentration (AC50) on Mu-type opioid receptor is greater than 30 µM; in [1], greater than 30 µM; at D(1A) dopamine receptor it was greater than 30 µM; on Adenosine receptor A3, 1.92 µM; on Prothrombin, greater than 30 µM; on D(3) dopamine receptor, greater than 30 µM. Moreover, the AC50 (at Thromboxane A2 receptor; in experiment [2]; at Estrogen receptor; in [3]; in experiment [4]; at Histamine H3 receptor) was greater than 30 µM in each case. This molecule also showed an AC50 in experiment [5] of 14.5 µM.

Consider `Cc1cc(CCN2CCN(c3cccc(Cl)c3)CC2)n[nH]1` [MEPIPRAZOLE], for which the AC50 at Mu-type opioid receptor was 15.7 µM; in experiment [1] it was greater than 30 µM; on D(1A) dopamine receptor it was 0.591 µM; on Adenosine receptor A3 it was greater than 30 µM; on Prothrombin, greater than 30 µM; at D(3) dopamine receptor it was 0.0358 µM. The AC50 at Thromboxane A2 receptor was greater than 30 µM; in [2] it was 0.003 µM; at Estrogen receptor it was greater than 30 µM; in experiment [3] it was greater than 30 µM; in [4], greater than 30 µM; on Histamine H3 receptor it was greater than 30 µM. For the same molecule, the AC50 in experiment [5] was greater than 30 µM.

Take `CO[C@H]1[C@@H](O)C[C@H](O[C@H]2[C@@H](O)C[C@H](O[C@H]3[C@@H](O)C[C@H](O[C@H]4CC[C@@]5(C)[C@H](CC[C@@H]6[C@@H]5C[C@@H](O)[C@]5(C)[C@@H](C7=CC(=O)OC7)CC[C@]65O)C4)O[C@@H]3C)O[C@@H]2C)O[C@@H]1C` [METILDIGOXIN]: the concentration at half-maximal activity (AC50) (at Mu-type opioid receptor; in experiment [1]; at D(1A) dopamine receptor; on Adenosine receptor A3; at Prothrombin; at D(3) dopamine receptor) was greater than 30 µM in each case. Besides, the AC50 (on Thromboxane A2 receptor; in [2]; on Estrogen receptor; in [3]; in experiment [4]; at Histamine H3 receptor) was greater than 30 µM in each case. Moreover, the AC50 in experiment [5] is greater than 30 µM.

Turning to `CC1(C)S[C@@H]2[C@H](NC(=O)[C@H](NC(=O)N3CCN(S(C)(=O)=O)C3=O)c3ccccc3)C(=O)N2[C@H]1C(=O)O` [MEZLOCILLIN], the AC50 (on Mu-type opioid receptor; in [1]; on D(1A) dopamine receptor; on Adenosine receptor A3; on Prothrombin; at D(3) dopamine receptor) was greater than 30 µM each time. Moreover, the AC50 (at Thromboxane A2 receptor; in experiment [2]; on Estrogen receptor; in experiment [3]; in experiment [4]; at Histamine H3 receptor) was greater than 30 µM throughout. The same molecule registered an AC50 in [5] greater than 30 µM.

Regarding `CCOC(=O)[C@H](CCc1ccccc1)N[C@@H](C)C(=O)N1Cc2cc(OC)c(OC)cc2C[C@H]1C(=O)O` [MOEXIPRIL], the AC50 (on Mu-type opioid receptor; in experiment [1]; at D(1A) dopamine receptor; on Adenosine receptor A3; at Prothrombin; at D(3) dopamine receptor) was greater than 30 µM each time. Also, the AC50 (on Thromboxane A2 receptor; in experiment [2]; on Estrogen receptor; in [3]; in experiment [4]; on Histamine H3 receptor) was greater than 30 µM throughout. This molecule also showed a half-maximal activity concentration (AC50) in [5] greater than 30 µM.

Source of the values: ChEMBL document CHEMBL5291721, “A preclinical secondary pharmacology resource illuminates target-adverse drug reaction associations of marketed drugs” (Nat Commun, 2023).
